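Five compound concentrations were applied to cells in 96-well plates for 48 hours; endpoints were derived by simple linear interpolation of the resulting dose-response curve. TGI: concentration producing complete growth inhibition.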
How the values were obtained:
Assay in all cases: growth of human tumour cells (NCI), 48 h
SF-295 CNS = tested on: SF-295 CNS
MALME-3M melanoma = tested on: MALME-3M melanoma
SK-MEL-28 melanoma = tested on: SK-MEL-28 melanoma
ACHN renal = tested on: ACHN renal
UACC-257 melanoma = tested on: UACC-257 melanoma
EKVX NSCLC = tested on: EKVX NSCLC
HOP-62 NSCLC = tested on: HOP-62 NSCLC
SNB-19 CNS = tested on: SNB-19 CNS
SR leukemia = tested on: SR leukemia
PC-3 prostate = tested on: PC-3 prostate
MDA-MB-435 = tested on: MDA-MB-435
RXF 393 renal = tested on: RXF 393 renal
A498 renal = tested on: A498 renal
NCI-H522 lung = tested on: NCI-H522 lung
NCI-H226 lung = tested on: NCI-H226 lung
CCRF-CEM leukemia = tested on: CCRF-CEM leukemia
COLO 205 colon = tested on: COLO 205 colon
HCT-116 colon = tested on: HCT-116 colon
IGROV1 ovarian = tested on: IGROV1 ovarian
M14 melanoma = tested on: M14 melanoma
HOP-92 NSCLC = tested on: HOP-92 NSCLC
SW-620 colon = tested on: SW-620 colon
OVCAR-5 ovarian = tested on: OVCAR-5 ovarian
MCF7 breast = tested on: MCF7 breast
SK-MEL-5 melanoma = tested on: SK-MEL-5 melanoma
U251 CNS = tested on: U251 CNS
SK-OV-3 ovarian = tested on: SK-OV-3 ovarian
NCI-H23 lung = tested on: NCI-H23 lung
T-47D breast = tested on: T-47D breast
BT-549 breast = tested on: BT-549 breast
DU-145 prostate = tested on: DU-145 prostate
OVCAR-8 ovarian = tested on: OVCAR-8 ovarian
UACC-62 melanoma = tested on: UACC-62 melanoma
UO-31 renal = tested on: UO-31 renal
A549 NSCLC = tested on: A549 NSCLC
CAKI-1 renal = tested on: CAKI-1 renal
SN12C renal = tested on: SN12C renal
HL-60(TB) leukemia = tested on: HL-60(TB) leukemia
RPMI-8226 leukemia = tested on: RPMI-8226 leukemia
HS 578T breast = tested on: HS 578T breast
OVCAR-4 ovarian = tested on: OVCAR-4 ovarian
786-0 renal = tested on: 786-0 renal
K-562 leukemia = tested on: K-562 leukemia
OVCAR-3 ovarian = tested on: OVCAR-3 ovarian
NCI/ADR-RES ovarian = tested on: NCI/ADR-RES ovarian
SNB-75 CNS = tested on: SNB-75 CNS
HT29 colon = tested on: HT29 colon
SK-MEL-2 melanoma = tested on: SK-MEL-2 melanoma
HCT-15 colon = tested on: HCT-15 colon
MDA-MB-231 breast = tested on: MDA-MB-231 breast
KM12 colon = tested on: KM12 colon
SF-268 CNS = tested on: SF-268 CNS
LOX IMVI melanoma = tested on: LOX IMVI melanoma
SF-539 CNS = tested on: SF-539 CNS
NCI-H460 lung = tested on: NCI-H460 lung
MDA-N = tested on: MDA-N
HCC-2998 colon = tested on: HCC-2998 colon
MOLT-4 leukemia = tested on: MOLT-4 leukemia
TK-10 renal = tested on: TK-10 renal
XF 498 CNS = tested on: XF 498 CNS
SNB-78 CNS = tested on: SNB-78 CNS
KM20L2 colon = tested on: KM20L2 colon
DLD-1 colon = tested on: DLD-1 colon
DMS 273 small cell lung = tested on: DMS 273 small cell lung

For `COC(=O)CC1C(COC(C)=O)OC(n2cc(C)c(=O)[nH]c2=O)C1OC(C)=O` (stereo unspecified), which TGI (SF-295 CNS) is on record?
The TGI was > 100 µM.

And the TGI (MALME-3M melanoma)?
The TGI was > 100 µM.

What about the TGI (SK-MEL-28 melanoma) of the same molecule?
The TGI was > 100 µM.

And the TGI (ACHN renal)?
The TGI was > 100 µM.

And the TGI (UACC-257 melanoma)?
The TGI was > 100 µM.

And the TGI (EKVX NSCLC)?
Its TGI is > 100 µM.

And the TGI (HOP-62 NSCLC)?
Its TGI is > 100 µM.

What about the TGI (SNB-19 CNS) of the same molecule?
The TGI was > 100 µM.

And the TGI (SR leukemia)?
The TGI was > 100 µM.

And the TGI (PC-3 prostate)?
The TGI was > 100 µM.

And the TGI (MDA-MB-435)?
Its TGI is > 100 µM.

And the TGI (RXF 393 renal)?
The TGI was > 100 µM.

And the TGI (A498 renal)?
The TGI was > 100 µM.

And the TGI (NCI-H522 lung)?
Its TGI is > 100 µM.

What about the TGI (NCI-H226 lung) of the same molecule?
Its TGI is > 100 µM.

And the TGI (CCRF-CEM leukemia)?
Its TGI is > 100 µM.

What about the TGI (COLO 205 colon) of the same molecule?
Its TGI is > 100 µM.

And the TGI (HCT-116 colon)?
Its TGI is > 100 µM.

And the TGI (IGROV1 ovarian)?
The TGI was > 100 µM.

And the TGI (M14 melanoma)?
Its TGI is > 100 µM.

And the TGI (HOP-92 NSCLC)?
Its TGI is > 100 µM.

What about the TGI (SW-620 colon) of the same molecule?
Its TGI is > 100 µM.

And the TGI (OVCAR-5 ovarian)?
Its TGI is > 100 µM.

What about the TGI (MCF7 breast) of the same molecule?
Its TGI is > 100 µM.

And the TGI (SK-MEL-5 melanoma)?
The TGI was > 100 µM.

And the TGI (U251 CNS)?
The TGI was > 100 µM.

And the TGI (SK-OV-3 ovarian)?
The TGI was > 100 µM.

What about the TGI (NCI-H23 lung) of the same molecule?
The TGI was > 100 µM.

And the TGI (T-47D breast)?
The TGI was > 100 µM.

And the TGI (BT-549 breast)?
Its TGI is > 100 µM.

And the TGI (DU-145 prostate)?
The TGI was > 100 µM.

What about the TGI (OVCAR-8 ovarian) of the same molecule?
The TGI was > 100 µM.

And the TGI (UACC-62 melanoma)?
The TGI was > 100 µM.

And the TGI (UO-31 renal)?
Its TGI is > 100 µM.

What about the TGI (A549 NSCLC) of the same molecule?
The TGI was > 100 µM.

And the TGI (CAKI-1 renal)?
The TGI was > 100 µM.

What about the TGI (SN12C renal) of the same molecule?
Its TGI is > 100 µM.

What about the TGI (HL-60(TB) leukemia) of the same molecule?
The TGI was > 100 µM.

And the TGI (RPMI-8226 leukemia)?
Its TGI is > 100 µM.

And the TGI (HS 578T breast)?
Its TGI is > 100 µM.

And the TGI (OVCAR-4 ovarian)?
The TGI was > 100 µM.

And the TGI (786-0 renal)?
The TGI was > 100 µM.

And the TGI (K-562 leukemia)?
Its TGI is > 100 µM.

And the TGI (OVCAR-3 ovarian)?
Its TGI is > 100 µM.

What about the TGI (NCI/ADR-RES ovarian) of the same molecule?
The TGI was > 100 µM.

And the TGI (SNB-75 CNS)?
The TGI was > 100 µM.

What about the TGI (HT29 colon) of the same molecule?
The TGI was > 100 µM.

And the TGI (SK-MEL-2 melanoma)?
The TGI was > 100 µM.

What about the TGI (HCT-15 colon) of the same molecule?
Its TGI is > 100 µM.

What about the TGI (MDA-MB-231 breast) of the same molecule?
Its TGI is > 100 µM.

And the TGI (KM12 colon)?
Its TGI is > 100 µM.

And the TGI (SF-268 CNS)?
Its TGI is > 100 µM.

What about the TGI (LOX IMVI melanoma) of the same molecule?
The TGI was > 100 µM.

What about the TGI (SF-539 CNS) of the same molecule?
The TGI was > 100 µM.

What about the TGI (NCI-H460 lung) of the same molecule?
Its TGI is > 100 µM.

What about the TGI (MDA-N) of the same molecule?
Its TGI is > 100 µM.

What about the TGI (HCC-2998 colon) of the same molecule?
Its TGI is > 100 µM.

And the TGI (MOLT-4 leukemia)?
Its TGI is > 100 µM.

And the TGI (TK-10 renal)?
The TGI was > 100 µM.

With `O=C(CCC(=O)Nc1cccc(Cl)c1)CC(=O)c1ccc(F)cc1` as the molecule, how does the TGI (SF-295 CNS) read?
The TGI was 61.2 µM.

What about the TGI (MALME-3M melanoma) of the same molecule?
The TGI was > 100 µM.

What about the TGI (SK-MEL-28 melanoma) of the same molecule?
Its TGI is > 100 µM.

And the TGI (ACHN renal)?
Its TGI is > 100 µM.

What about the TGI (XF 498 CNS) of the same molecule?
Its TGI is > 100 µM.

And the TGI (UACC-257 melanoma)?
The TGI was > 100 µM.

What about the TGI (HOP-62 NSCLC) of the same molecule?
The TGI was > 100 µM.

What about the TGI (SNB-19 CNS) of the same molecule?
Its TGI is > 100 µM.

And the TGI (SR leukemia)?
Its TGI is > 100 µM.

And the TGI (NCI-H522 lung)?
Its TGI is > 100 µM.

What about the TGI (NCI-H226 lung) of the same molecule?
Its TGI is > 100 µM.

What about the TGI (COLO 205 colon) of the same molecule?
Its TGI is > 100 µM.

And the TGI (HCT-116 colon)?
Its TGI is > 100 µM.

What about the TGI (M14 melanoma) of the same molecule?
The TGI was > 100 µM.

And the TGI (HOP-92 NSCLC)?
Its TGI is > 100 µM.

What about the TGI (SW-620 colon) of the same molecule?
Its TGI is > 100 µM.

And the TGI (OVCAR-5 ovarian)?
Its TGI is > 100 µM.

What about the TGI (SK-OV-3 ovarian) of the same molecule?
The TGI was > 100 µM.

And the TGI (NCI-H23 lung)?
The TGI was > 100 µM.

What about the TGI (SNB-78 CNS) of the same molecule?
The TGI was > 100 µM.

And the TGI (KM20L2 colon)?
Its TGI is > 100 µM.

What about the TGI (OVCAR-8 ovarian) of the same molecule?
The TGI was > 100 µM.

What about the TGI (UACC-62 melanoma) of the same molecule?
The TGI was > 100 µM.

What about the TGI (UO-31 renal) of the same molecule?
The TGI was > 100 µM.

What about the TGI (A549 NSCLC) of the same molecule?
The TGI was > 100 µM.

What about the TGI (CAKI-1 renal) of the same molecule?
The TGI was > 100 µM.

And the TGI (SN12C renal)?
Its TGI is > 100 µM.

And the TGI (HL-60(TB) leukemia)?
Its TGI is > 100 µM.

And the TGI (RPMI-8226 leukemia)?
Its TGI is > 100 µM.

And the TGI (OVCAR-4 ovarian)?
The TGI was > 100 µM.

What about the TGI (786-0 renal) of the same molecule?
The TGI was > 100 µM.

What about the TGI (K-562 leukemia) of the same molecule?
The TGI was > 100 µM.

And the TGI (OVCAR-3 ovarian)?
Its TGI is > 100 µM.

What about the TGI (DLD-1 colon) of the same molecule?
The TGI was > 100 µM.

And the TGI (SNB-75 CNS)?
Its TGI is > 100 µM.

And the TGI (HT29 colon)?
Its TGI is > 100 µM.

And the TGI (SK-MEL-2 melanoma)?
Its TGI is > 100 µM.

And the TGI (DMS 273 small cell lung)?
Its TGI is > 100 µM.

And the TGI (HCT-15 colon)?
The TGI was > 100 µM.

What about the TGI (KM12 colon) of the same molecule?
The TGI was > 100 µM.

What about the TGI (SF-268 CNS) of the same molecule?
The TGI was > 100 µM.

And the TGI (LOX IMVI melanoma)?
The TGI was > 100 µM.

And the TGI (SF-539 CNS)?
Its TGI is > 100 µM.

And the TGI (NCI-H460 lung)?
The TGI was > 100 µM.

What about the TGI (HCC-2998 colon) of the same molecule?
Its TGI is > 100 µM.

What about the TGI (MOLT-4 leukemia) of the same molecule?
The TGI was > 100 µM.

What about the TGI (TK-10 renal) of the same molecule?
The TGI was > 100 µM.

From PubChem BioAssay (NCI)
